# Reference: ChEMBL document CHEMBL1127762, “Five-membered heterocyclic amines as potential anti-rheumatoid arthritis agents” (Bioorg Med Chem Lett, 1994)
# Columns and labels:
# Rattus norvegicus [1] = assay: Percent reduction in paw volume ([…], days 9-18) by 33 mg/kg p.o. in rats.; format: functional; conditions: route oral
# [2] = Partition coefficient (logP); conditions: octanol/water
# Rattus norvegicus [3] = assay: Percent reduction in paw volume (right primary lesion, days 0-8) by 33 mg/kg p.o. in rats.; format: functional; conditions: route oral
# Rattus norvegicus [4] = assay: Percent reduction in paw volume (right primary lesion, days 9-18) by 33 mg/kg p.o. in rats.; format: functional; conditions: route oral
# Rattus norvegicus [5] = assay: Improvement in joint mobility at 33 mg/kg p.o. in rat model of arthritis.; format: functional; conditions: route oral
# Rattus norvegicus [6] = assay: Antiarthritic activity by measuring percent reduction in paw volume in Sprague Dawley rat by peroral administration of 33 mg/kg; format: functional; conditions: route oral
# Rattus norvegicus [7] = assay: Antiarthritic activity by measuring % reduction in paw volume in Sprague Dawley rat, peroral administration of 10 mg/kg, volume change in the uninjected paw([…]) measured from day 9 to day 18; format: functional; conditions: route oral
Structure (SMILES),logP [2],Reduction (Rattus norvegicus [1]) [%],Reduction (Rattus norvegicus [3]),Reduction (Rattus norvegicus [4]) [%],Reduction (Rattus norvegicus [5]) [%],Reduction (Rattus norvegicus [6]) [%],Reduction (Rattus norvegicus [7]) [%]
Nc1n[nH]c(-c2ccccn2)n1,,60,3%,32,21,,
CC(=O)Nc1nc(-c2cc(C(C)(C)C)c(O)c(C(C)(C)C)c2)no1,,79,80%,66,75,,
CC(C)(C)c1cc(-c2noc(N)n2)cc(C(C)(C)C)c1O,3.72,103,47%,56,89,,
O=C(Nc1nc(-c2ccccc2)ns1)OCC(Cl)(Cl)Cl,,68,50%,45,42,,
Nc1nc(-c2ccccn2)no1,,66,24%,22,8,,
CCCc1nsc(N)n1,1.12,54,13%,40,47,,
Nc1nc(-c2ccccc2)ns1,,84,22%,51,13,,
Cc1nsc(N)n1,0,66,38%,50,84,,
Nc1nc[nH]n1 [AMITROLE],,57,27,46,26,,
C/C=C/C[C@@H](C)[C@@H](O)[C@H]1C(=O)N[C@@H](CC)C(=O)N(C)CC(=O)N(C)[C@@H](CC(C)C)C(=O)N[C@@H](C(C)C)C(=O)N(C)[C@@H](CC(C)C)C(=O)N[C@@H](C)C(=O)N[C@H](C)C(=O)N(C)[C@@H](CC(C)C)C(=O)N(C)[C@@H](CC(C)C)C(=O)N(C)[C@@H](C(C)C)C(=O)N1C [CYCLOSPORINE],,,51%,,,,77

# Continued, in another order:
logP [2],Structure (SMILES),Reduction (Rattus norvegicus [1]) [%],Reduction (Rattus norvegicus [3]),Reduction (Rattus norvegicus [4]) [%],Reduction (Rattus norvegicus [5]) [%],Reduction (Rattus norvegicus [6]) [%],Reduction (Rattus norvegicus [7]) [%]
0.66,Nc1ncns1,106,45%,59,69,,
0.52,Nc1nc(-c2cnccn2)ns1,24,10%,17,6,,
2.83,Nc1nc(-c2ccc(Cl)cc2)ns1,46,20%,50,18,,
0.08,Nc1nc(-c2ncccn2)ns1,5,28%,31,30,,
1.05,Nc1nc(-c2ccccn2)ns1,65,8%,44,70,,
2.05,Nc1nc(Cc2ccccc2)ns1,77,28%,42,36,,
1.58,Nc1nc(-c2cccnc2)ns1,49,15%,22,24,,
1.78,CC(C)(C)c1nsc(N)n1,45,16%,30,28,,
1.72,Nc1nc(-c2ccncc2)ns1,74,11%,20,33,,
1.77,Nc1nc(-c2cccs2)ns1,43,6%,25,7,,
1.78,CC(C)(C)c1ccc(-c2nsc(N)n2)cc1,6,27%,,18,2,
